Where a SMILES comes first, the peptide text is derived from it. Bridges are numbered along the chain shown (N, C = ends). [ ]: non-standard residue; d: D form. The star is where a group is joined. hPhe(3-Cl-4-CF3) = N[C@@H](CCc1ccc(C(F)(F)F)c(Cl)c1)C(=O)O; NPrPhe(4-CF3) = CCCN[C@@H](Cc1ccc(C(F)(F)F)cc1)C(=O)O; NPrPhe(4-Me) = CCCN[C@@H](Cc1ccc(C)cc1)C(=O)O; NMeGly(cPent) = CN[C@H](C(=O)O)C1CCCC1; Hyp = O=C(O)[C@@H]1C[C@@H](O)CN1; NMeD = CN[C@@H](CC(=O)O)C(=O)O; NMeL = CN[C@@H](CC(C)C)C(=O)O; Morpholide = C1CN(*)CCO1; Ac5c = NC1(C(=O)O)CCCC1; Aze = O=C(O)[C@@H]1CCN1; Ac4c = NC1(C(=O)O)CCC1; NEtG = CCNCC(=O)O; Sar = CNCC(=O)O
How the values were obtained:
[1] = target: GDP-bound NRAS wild-type protein (Homo sapiens, UniProt P01111); assay: Binding to NRAS by surface plasmon resonance (SPR), KD and KD ratio to KRAS
How it was run: (§1)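 Each cycle, GDP-bound biotin-Avi RAS was captured (~100–300 RU), compound concentrations were injected low to high for 75 s each at 100 µL/min, then the chip was regenerated. Buffer: HBS pH 7.4, 10 mM MgCl2, 10 µM GDP, 1 mM DTT, 4% DMSO; 30°C. KD from a 1:1 binding model.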

HRAS wild-type protein = HRAS wild-type protein (Homo sapiens, UniProt P01112); assay: Binding to HRAS by surface plasmon resonance (SPR), KD and KD ratio to KRAS
How it was run: as §1

[2] = test system: human lung cancer strain NCI-H441; format: cell-based
How it was run: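 Signal came from […] measured per well once the reagent was added. Beforehand, cells were cultured at 37°C and 5% carbon dioxide on a compound series serially diluted in dimethyl sulfoxide.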

[3] = ratio of KD value for GDP-bound NRAS wild-type protein to KD value for KRAS (SPR)
[4] = ratio of KD value for HRAS wild-type protein to KD value for KRAS (SPR)
[5] = ratio of KD for GDP-bound NRAS wild-type protein to KD for KRAS
[6] = ratio of KD for HRAS wild-type protein to KD for KRAS
[7] = ratio of the KD value with respect to GDP-bound NRAS wild-type protein to the KD value with respect to KRAS
[8] = ratio of the KD value with respect to HRAS wild-type protein to the KD value with respect to KRAS

GDP-bound NRAS wild-type protein, sequence (P01111 whole entry): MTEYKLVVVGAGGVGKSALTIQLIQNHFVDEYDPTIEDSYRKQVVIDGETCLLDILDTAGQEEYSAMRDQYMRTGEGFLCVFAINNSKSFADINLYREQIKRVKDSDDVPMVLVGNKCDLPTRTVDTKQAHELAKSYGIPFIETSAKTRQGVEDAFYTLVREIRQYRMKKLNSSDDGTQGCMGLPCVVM
HRAS wild-type protein, sequence (P01112 whole entry): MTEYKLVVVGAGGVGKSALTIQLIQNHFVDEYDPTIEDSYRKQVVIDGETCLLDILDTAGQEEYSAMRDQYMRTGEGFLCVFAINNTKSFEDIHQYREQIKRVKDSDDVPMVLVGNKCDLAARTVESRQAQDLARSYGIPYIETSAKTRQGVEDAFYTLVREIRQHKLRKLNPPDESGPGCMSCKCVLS

Row | SMILES | IC50 [2] [nM] | NRAS /KRAS [1, 5] | HRAS /KRAS (HRAS wild-type protein; [6]) | further results
1 | CCO[C@@H]1C[C@H]2C(=O)NC3(CC(F)(F)C3)C(=O)N(C)[C@@H](C3CCCC3)C(=O)N(C)[C@H](C(=O)N(C)C)CC(=O)N(C)[C@@H](CC3CCC3)C(=O)N[C@@H]([C@@H](C)CC)C(=O)N(C)CC(=O)N(C)[C@H]3C/C=C\CCN(C3=O)[C@@H](Cc3ccc(C(F)(F)F)cc3)C(=O)N(C)CC(=O)N[C@@H](CCc3cc(F)c(C(F)(F)F)c(F)c3)C(=O)N2C1 [PP1742] | 1.6 | – | – | NRAS /KRAS [1, 3]: A (a compound having 10 or more and less than 20 is denoted as A); HRAS /KRAS (HRAS wild-type protein; [4]): A (a compound having 10 or more and less than 20 is denoted as A)
2 | CC[C@H](C)[C@@H]1NC(=O)[C@H](CC(C)C)N(C)C(=O)C[C@@H](C(=O)N2CCOCC2)N(C)C(=O)[C@H](C2CCCC2)N(C)C(=O)C2(CCC2)NC(=O)[C@@H]2[C@H](OC)CCN2C(=O)[C@H](CCc2cc(F)c(C(F)(F)F)c(F)c2)NC(=O)CN(C)C(=O)[C@H](Cc2ccc(C(F)(F)F)cc2)N2CCCC[C@@H](C2=O)N(C)C(=O)CN(C)C1=O [PP1078] | 610 | B (a compound having 3 or more and less than 10 is denoted as B) | B (a compound having 3 or more and less than 10 is denoted as B) | –
3 | CC[C@H](C)[C@@H]1NC(=O)[C@H](CC2CC2)N(C)C(=O)C[C@@H](C(=O)N(C)C)N(C)C(=O)[C@H](C2CCCC2)N(C)C(=O)C2(CC(C)(C)C2)NC(=O)[C@@H]2C[C@@H](C(F)(F)F)CN2C(=O)[C@H](CCc2cc(F)c(C(F)(F)F)c(F)c2)NC(=O)CN(C)C(=O)[C@H](Cc2ccc(C(F)(F)F)cc2)N2CC/C=C\C[C@@H](C2=O)N(C)C(=O)CN(C)C1=O [PP1504] | 38 | – | – | NRAS /KRAS [1, 3]: A (a compound having 10 or more and less than 20 is denoted as A); HRAS /KRAS (HRAS wild-type protein; [4]): A (a compound having 10 or more and less than 20 is denoted as A)
4 | CCCN1C(=O)CN(C)C(=O)CN(C)C(=O)[C@H]([C@@H](C)CC)NC(=O)[C@H](CC(C)C)N(C)C(=O)C[C@@H](C(=O)N2CCOCC2)N(C)C(=O)[C@H](C2CCCC2)N(C)C(=O)C2(CCCC2)NC(=O)[C@@H]2CCCN2C(=O)[C@H](CCc2ccc(C(F)(F)F)c(Cl)c2)NC(=O)CN(CC)C(=O)[C@@H]1Cc1ccc(C)cc1 [PP0066] ([NMeL]I[Sar][Sar][NPrPhe(4-Me)][NEtG][hPhe(3-Cl-4-CF3)]P[Ac5c][NMeGly(cPent)][NMeD]-Morpholide; lactam N-11) | 26.1 | B (a compound having 3 or more and less than 10 is denoted as B) | C (A compound having a KD ratio of 0.1 or more and less than 3 is denoted as C) | –
5 | CCO[C@@H]1C[C@H]2C(=O)NC3(CC(C)(C)C3)C(=O)N(C)[C@@H](C(CC)CC)C(=O)N(C)[C@H](C(=O)N(C)C)CC(=O)N(C)[C@H]3CCCCCCc4ccc(cc4)C[C@@H](C(=O)N(C)CC(=O)N[C@@H](CCc4ccc(C(F)(F)F)c(OC)c4)C(=O)N2C1)N1CC/C=C\C[C@@H](C1=O)N(C)C(=O)CN(C)C(=O)[C@H]([C@@H](C)CC)NC3=O [PP3032] | 2.1 | AA (a compound having 20 or more is denoted as AA) | A (a compound having 10 or more and less than 20 is denoted as A) | –
6 | CCCN1C(=O)[C@@H]2CCN2C(=O)CN(C)C(=O)[C@H]([C@@H](C)CC)NC(=O)[C@H](CC(C)C)N(C)C(=O)C[C@@H](C(=O)N(C)C)N(C)C(=O)[C@H](C2CCCC2)N(C)C(=O)C2(CCCC2)NC(=O)[C@@H]2C[C@@H](OCC)CN2C(=O)[C@H](CCc2ccc(C(F)(F)F)c(Cl)c2)NC(=O)CN(C)C(=O)[C@@H]1Cc1ccc(C(F)(F)F)cc1 [PP0444] ([NMeL]I[Sar][Aze][NPrPhe(4-CF3)][Sar][hPhe(3-Cl-4-CF3)][Hyp](Et)[Ac5c][NMeGly(cPent)][NMeD]-NMe2; lactam N-11) | 1.4 | – | – | NRAS /KRAS [1, 7]: C (A compound having a KD ratio of 0.1 or more and less than 3 is denoted as C); HRAS /KRAS (HRAS wild-type protein; [8]): C (A compound having a KD ratio of 0.1 or more and less than 3 is denoted as C)
7 | CC[C@H](C)[C@@H]1NC(=O)[C@@H]2CCCc3ccc(cc3)C[C@@H](C(=O)N(C)CC(=O)N[C@@H](CCc3ccc(C(F)(F)F)c(OC)c3)C(=O)N3C[C@H](OC4CCCC4)C[C@H]3C(=O)NC3(CC(C)(C)C3)C(=O)N(C)[C@@H](C3CCCC3)C(=O)N(C)[C@H](C(=O)N(C)CC)CC(=O)N2C)N2CC/C=C\C[C@@H](C2=O)N(C)C(=O)CN(C)C1=O [PP3086] | 7.9 | B (a compound having 3 or more and less than 10 is denoted as B) | B (a compound having 3 or more and less than 10 is denoted as B) | –
8 | CCC[C@H]1C(=O)N[C@@H]([C@@H](C)CC)C(=O)N(C)CC(=O)N(C)[C@H]2C/C=C\CCN(C2=O)[C@@H](Cc2ccc(C(F)(F)F)cc2)C(=O)N(C)CC(=O)N[C@@H](CCc2ccc(C(F)(F)F)c(OC)c2)C(=O)N2C[C@H](OCC)C[C@H]2C(=O)NC2(CC(C)(C)C2)C(=O)N(C)[C@@H](CC2CC2)C(=O)N(C)[C@H](C(=O)N(C)C)CC(=O)N1C [PP2809] | 76.6 | A (a compound having 10 or more and less than 20 is denoted as A) | A (a compound having 10 or more and less than 20 is denoted as A) | –
9 | CCO[C@@H]1C[C@H]2C(=O)NC3(CCC3)C(=O)N(C)[C@@H](C3CCCC3)C(=O)N(C)[C@H](C(=O)N(C)C)CC(=O)N(C)[C@@H](CC)C(=O)N[C@@H]([C@@H](C)CC)C(=O)N(C)CC(=O)N(C)[C@H]3CCCCCN(C3=O)[C@@H](Cc3ccc(F)cc3OC)C(=O)N(C)CC(=O)N[C@@H](CCc3cc(F)c(C(F)(F)F)c(F)c3)C(=O)N2C1 [PP0914] | 40.2 | B (a compound having 3 or more and less than 10 is denoted as B) | B (a compound having 3 or more and less than 10 is denoted as B) | –
10 | CC[C@H](C)[C@@H]1NC(=O)[C@H](CC(C)C)N(C)C(=O)C[C@@H](C(=O)N2CCOCC2)N(C)C(=O)[C@H](C2CCCCC2)N(C)C(=O)C2(CCCC2)NC(=O)[C@@H]2CCCN2C(=O)[C@H](CCc2cc(F)c(C(F)(F)F)c(F)c2)NC(=O)CN(C)C(=O)[C@H](Cc2ccc(C(F)(F)F)cc2)N2CCCCC[C@@H](C2=O)N(C)C(=O)CN(C)C1=O [PP0505] | 210 | – | – | NRAS /KRAS [1, 7]: B (a compound having 3 or more and less than 10 is denoted as B); HRAS /KRAS (HRAS wild-type protein; [8]): B (a compound having 3 or more and less than 10 is denoted as B)
11 | CCCN1C(=O)CN(C)C(=O)CNC(=O)[C@H]([C@@H](C)CC)NC(=O)[C@H](CC(C)C)N(C)C(=O)C[C@@H](C(=O)N(C)C)NC(=O)[C@H](C2CCCC2)N(C)C(=O)C2(CCC2)NC(=O)[C@@H]2C[C@@H](OCC)CN2C(=O)[C@H](CCc2ccc(C(F)(F)F)c(Cl)c2)NC(=O)CN(C)C(=O)[C@@H]1Cc1ccc(C(F)(F)F)cc1 [PP0366] ([NMeL]IG[Sar][NPrPhe(4-CF3)][Sar][hPhe(3-Cl-4-CF3)][Hyp](Et)[Ac4c][NMeGly(cPent)]D-NMe2; lactam N-11) | 80.2 | B (a compound having 3 or more and less than 10 is denoted as B) | B (a compound having 3 or more and less than 10 is denoted as B) | –
12 | CCC[C@H]1C(=O)N[C@@H]([C@@H](C)CC)C(=O)N(C)CC(=O)N(C)[C@H]2CCCCCN(C2=O)[C@@H](Cc2ccc(C(F)(F)F)cc2)C(=O)N(C)CC(=O)N[C@@H](CCc2cc(F)c(C(F)(F)F)c(F)c2)C(=O)N2C[C@H](OCC)C[C@H]2C(=O)NC2(CCC2)C(=O)N(C)[C@@H](C2CCCC2)C(=O)N(C)[C@H](C(=O)N2CCOCC2)CC(=O)N1C [PP0679] | 40.2 | – | – | NRAS /KRAS [1, 7]: B (a compound having 3 or more and less than 10 is denoted as B); HRAS /KRAS (HRAS wild-type protein; [8]): B (a compound having 3 or more and less than 10 is denoted as B)
13 | CCCN(C)C(=O)[C@@H]1CC(=O)N(C)[C@@H](CC2CCC2)C(=O)N[C@@H]([C@@H](C)CC)C(=O)N(C)CC(=O)N(C)[C@H]2C/C=C\CCN(C2=O)[C@@H](Cc2ccc(C(F)(F)F)cc2)C(=O)N(C)CC(=O)N[C@@H](CCc2cc(F)c(C(F)(F)F)c(F)c2)C(=O)N2C[C@H](OCC)C[C@H]2C(=O)NC2(CCC2)C(=O)N(C)[C@@H](C2CCCC2)C(=O)N1C [PP1705] | 8 | – | – | NRAS /KRAS [1, 3]: AA (a compound having 20 or more is denoted as AA); HRAS /KRAS (HRAS wild-type protein; [4]): A (a compound having 10 or more and less than 20 is denoted as A)
14 | CCC[C@H]1C(=O)N[C@@H]([C@@H](C)CC)C(=O)N(C)CC(=O)N(C)[C@H]2C/C=C\CCN(C2=O)[C@@H](Cc2ccc(C(F)(F)F)cc2)C(=O)N(C)CC(=O)N[C@@H](CCc2cc(F)c(C(F)(F)F)c(F)c2)C(=O)N2C[C@H](OCC)C[C@H]2C(=O)NC2(CCC2)C(=O)N(C)[C@@H](C2CCCC2)C(=O)N(C)[C@H](C(=O)N2CC3CCC(C2)O3)CC(=O)N1C [PP1315] | 34.5 | – | – | NRAS /KRAS ([1]; ratio of KD with respect to GDP-bound NRAS wild-type protein to KD with respect to KRAS): AA (a compound having 20 or more is denoted as AA); HRAS /KRAS (HRAS wild-type protein; ratio of KD with respect to HRAS wild-type protein to KD with respect to KRAS): A (a compound having 10 or more and less than 20 is denoted as A)
15 | CC[C@H](C)[C@@H]1NC(=O)[C@H](CC(C)C)N(C)C(=O)C[C@@H](C(=O)N2CCOCC2)N(C)C(=O)[C@H](C2CCCC2)N(C)C(=O)C2(CCCC2)NC(=O)[C@@H]2CCCN2C(=O)[C@H](CCc2cc(F)c(C(F)(F)F)c(F)c2)NC(=O)CN(C)C(=O)[C@H](Cc2ccc(C(F)(F)F)cc2)N2CCCCC[C@@H](C2=O)N(C)C(=O)CN(C)C1=O [PP0490] | 50.5 | – | – | NRAS /KRAS [1, 7]: B (a compound having 3 or more and less than 10 is denoted as B); HRAS /KRAS (HRAS wild-type protein; [8]): B (a compound having 3 or more and less than 10 is denoted as B)
